Laboratory results: ChEMBL document CHEMBL6178013, “Ferroptosis of Cancer Cells via Tubulin Degradation and Mitochondrial Dysfunction: A Novel Mechanism of Anticancer Effect for Small-Molecule Anion Transporters” (J Med Chem, 2025)
pIC50: −log10 of the molar value. Activity calls are given as the source filed them. No cut-off for these calls is given here.

Assays:
Chloride [1] = experiment: Binding affinity to chloride anions assessed as anionophoric activity in egg-yolk L-alpha-phosphatidylcholine liposome model measured per lipid by pyranine-based fluorescent assay
Chloride [2] = experiment: Binding affinity to chloride anions using tetrabutylammonium chloride salt assessed as association constant by 1H NMR spectroscopy
Chloride [3] = experiment: Binding affinity to chloride anions assessed as fold increase in anionophoric activity in egg-yolk L-alpha-phosphatidylcholine liposome model measured per lipid by pyranine-based fluorescent assay relative to m-Bimbe
Chloride [4] = experiment: Binding affinity to chloride anions assessed as chloride efflux in egg-yolk L-alpha-phosphatidylcholine liposome model harboring intravesicular LiCl/extravesicular NaNO3
Chloride [5] = experiment: Binding affinity to chloride anions assessed as chloride efflux in egg-yolk L-alpha-phosphatidylcholine liposome model harboring intravesicular NaCl/extravesicular Na2SO4
Chloride [6] = experiment: Binding affinity to chloride anions assessed as chloride efflux in egg-yolk L-alpha-phosphatidylcholine liposome model harboring intravesicular NaCl/extravesicular NaHCO3
Chloride [7] = experiment: Binding affinity to chloride anions in human HeLa cells assessed as increase in green fluorescence in cytoplasm at 5 uM incubated for 6 hrs by AO staining based analysis; type: cell-based
Chloride [8] = experiment: Binding affinity to chloride anions in human HeLa cells assessed as decrease in red fluorescence in cytoplasm at 5 uM incubated for 1.5 hrs by MR-(RR)2 staining based analysis; type: cell-based
Chloride [9] = experiment: Binding affinity to chloride anions in human HeLa cells assessed as increase in chloride influx at 1 uM measured after 15 mins by flow cytometry; type: cell-based
A549 = experiment: Cytotoxicity against human A549 cells incubated for 48 hrs by MTT assay; type: functional, cell-based; conditions: A549, 48 h
HeLa [10] = experiment: Cytotoxicity against human HeLa cells assessed as decrease in cell viability at 0.01 to 10 uM pretreated with Nec-1 followed by compound addition by MTT assay; type: functional, cell-based; conditions: dose 0.01-10 µM
[11] = molecular target: Tubulin alpha (Homo sapiens) (UniProt P0DPH7+P68366+Q71U36+P68363+Q9BQE3+Q6PEY2+A6NHL2+Q9NY65); experiment: Induction of alpha-tubulin degradation in human HeLa cells incubated for 48 hrs by immunoblotting analysis; type: cell-based; conditions: dose 0.1-1 µM
HeLa [12] = experiment: Induction of beta III-tubulin degradation in human HeLa cells incubated for 48 hrs by immunoblotting analysis; type: cell-based; conditions: dose 0.1-1 µM
HeLa [13] = experiment: Induction of lipid peroxidation in human HeLa cells assessed as decrease in GSH level incubated for 12 hrs by absorbance based assay; type: functional, cell-based; conditions: dose 0.1-1 µM
HeLa [14] = experiment: Induction of lipid peroxidation in human HeLa cells assessed as increase in ROS generation incubated for 24 hrs by DCFH-DA probe based fluorescence microscopy; type: functional, cell-based; conditions: dose 0.1-1 µM
HeLa [15] = experiment: Induction of ferroptosis in human HeLa cells assessed as increase in PARP-1 cleavage at 0.1 to 1 uM incubated for 24 hrs by immunoblotting analysis; type: functional, cell-based; conditions: dose 0.1-1 µM
[16] = Half life in male CD-1 mouse at 1 mg/kg, iv measured for 0.083 to 48 hrs by HPLC/MS/MS analysis; type: ADME, organism-based; conditions: in vivo, time 0.083-48 hrs
[17] = AUC (0 to infinity) in male CD-1 mouse at 1 mg/kg, ip measured for 0.083 to 48 hrs by HPLC/MS/MS analysis; type: ADME, organism-based; conditions: in vivo, time 0.083-48 hrs
[18] = MRT (0 to infinity) in male CD-1 mouse at 1 mg/kg, ip measured for 0.083 to 48 hrs by HPLC/MS/MS analysis; type: ADME, organism-based; conditions: in vivo, time 0.083-48 hrs
[19] = Tmax in male CD-1 mouse at 1 mg/kg, ip measured for 0.083 to 48 hrs by HPLC/MS/MS analysis; type: ADME, organism-based; conditions: in vivo, time 0.083-48 hrs
[20] = Oral bioavailability in male CD-1 mouse at 1 mg/kg measured for 0.083 to 48 hrs by HPLC/MS/MS analysis; type: ADME, organism-based; conditions: in vivo, time 0.083-48 hrs
HeLa [21] = experiment: Antitumor activity against human HeLa cells xenografted in male Balb/C nude mouse assessed as decrease in beta III-tubulin level at 10 to 20 mg/kg, ip administered on every 2 days measured after 18 days by immunoblotting analysis; type: functional, organism-based; conditions: dose 10-20 mg/kg, time 18.0 day
[22] = Toxicity in male Balb/C nude mouse xenografted with human HeLa cells assessed as abnormalities in heart at 10 to 20 mg/kg, ip administered on every 2 days measured after 18 days by H and E staining based analysis; type: organism-based; conditions: in vivo, 432 h, dose 10-20 mg/kg, time 18 day
[23] = Toxicity in male Balb/C nude mouse xenografted with human HeLa cells assessed as abnormalities in liver at 10 to 20 mg/kg, ip administered on every 2 days measured after 18 days by H and E staining based analysis; type: organism-based; conditions: in vivo, 432 h, dose 10-20 mg/kg, time 18 day
[24] = Toxicity in male Balb/C nude mouse xenografted with human HeLa cells assessed as abnormalities in spleen at 10 to 20 mg/kg, ip administered on every 2 days measured after 18 days by H and E staining based analysis; type: organism-based; conditions: in vivo, 432 h, dose 10-20 mg/kg, time 18 day
[25] = Toxicity in male Balb/C nude mouse xenografted with human HeLa cells assessed as abnormalities in lung at 10 to 20 mg/kg, ip administered on every 2 days measured after 18 days by H and E staining based analysis; type: organism-based; conditions: in vivo, 432 h, dose 10-20 mg/kg, time 18 day
[26] = Toxicity in male Balb/C nude mouse xenografted with human HeLa cells assessed as abnormalities in kidney at 10 to 20 mg/kg, ip administered on every 2 days measured after 18 days by H and E staining based analysis; type: organism-based; conditions: in vivo, 432 h, dose 10-20 mg/kg, time 18 day
[27] = Drug concentration in plasma of C57BL/6 mouse at 5 mg/kg, iv measured after 4 hrs by HPLC/MS/MS analysis; type: ADME, organism-based

EC50 (Chloride [1]): 4.16 10^-2mol%
Ka (Chloride [2]): 1.48 10^3/M
fold change (FC) (Chloride [3]): 2.32 10^2No_unit
Activity (Chloride [4]): Active
Activity (Chloride [5]): inactive
Activity (Chloride [6]): Active
Activity [11]: Dose-dependent-effect
half-life [16]: 5.11 h
AUC(0-inf) [17]: 4610 ng·h/mL
MRT inf [18]: 14.8 h
Tmax [19]: 3.5 h
bioavailability [20]: 22%
concentration at 4 h [27]: 99.2 µM
Compound: Fc1cc(-c2nc3c(C(F)(F)F)cc(C(F)(F)F)cc3[nH]2)cc(-c2nc3c(C(F)(F)F)cc(C(F)(F)F)cc3[nH]2)c1
Activity (Chloride [7]): Active; The Result Indicates That Compound Basify Acidic Organelles
Activity (Chloride [8]): Active; The Result Reveals That Compound Can Alkalize Lysosomes
Activity (Chloride [9]): inactive
pIC50 (A549): 5.77
Activity (HeLa [10]): Active
Activity (HeLa [12]): Dose-dependent-effect
Activity (HeLa [13]): Dose-dependent-effect
Activity (HeLa [14]): Dose-dependent-effect
Activity (HeLa [15]): Active
Activity (HeLa [21]): Active
Activity [22]: Non-toxic
Activity [23]: Non-toxic
Activity [24]: Non-toxic
Activity [25]: Non-toxic
Activity [26]: Non-toxic
